Among the data in ChEMBL document CHEMBL3044907, “Sensitivity of Fusarium verticillioides isolates from rice to a novel cyanoacrylate fungicide” (Crop Prot, 2012) are Activity values, retold here.

What all share (type): functional
Assay [1] relates to Fusarium verticillioides. Put plainly: Fungicidal activity against Fusarium verticilliodes isolate YZ03 in rice seeds harvested from bakane diseased plants assessed as number of seedlings abnormally elongated or exhibiting symptoms of damping-off at 12.5 ug/ml at 30 degC incubated for 72 hr measured after 3 days under greenhouse trials (reference value: 21.3%).
Assay [2] has as its system Fusarium verticillioides. Put plainly: Fungicidal activity against Fusarium verticilliodes isolate YZ07 in rice seeds harvested from bakane diseased plants assessed as number of seedlings abnormally elongated or exhibiting symptoms of damping-off at 6.25 ug/ml at 30 degC incubated for 72 hr measured after 3 days under greenhouse trials (reference value: 43.2%).
The test system of assay [3] is Fusarium verticillioides. Description: Fungicidal activity against Fusarium verticilliodes isolate YZ11 in rice seeds harvested from bakane diseased plants assessed as number of seedlings abnormally elongated or exhibiting symptoms of damping-off at 8.33 ug/ml at 30 degC incubated for 72 hr measured after 3 days under greenhouse trials (reference value: 33.7%).
The test system of assay [4] is Fusarium verticillioides. Put plainly: Fungicidal activity against Fusarium verticilliodes isolate YZ12 in rice seeds harvested from bakane diseased plants assessed as number of seedlings abnormally elongated or exhibiting symptoms of damping-off at 12.5 ug/ml at 30 degC incubated for 72 hr measured after 3 days under greenhouse trials (reference value: 45.8%).
Assay [5] concerns Fusarium verticillioides. Description: Fungicidal activity against Fusarium verticilliodes isolate YZ10 in rice seeds harvested from bakane diseased plants assessed as number of seedlings abnormally elongated or exhibiting symptoms of damping-off at 8.33 ug/ml at 30 degC incubated for 72 hr measured after 3 days under greenhouse trials (reference value: 49.2%).
Assay [6] deals with Fusarium verticillioides. Description: Fungicidal activity against Fusarium verticilliodes isolate YZ11 in rice seeds harvested from bakane diseased plants assessed as number of seedlings abnormally elongated or exhibiting symptoms of damping-off at 25 ug/ml at 30 degC incubated for 72 hr measured after 3 days under greenhouse trials (reference value: 33.7%).
Assay [7] concerns Fusarium verticillioides. Description: Fungicidal activity against Fusarium verticilliodes isolate YZ22 in rice seeds harvested from bakane diseased plants assessed as number of seedlings abnormally elongated or exhibiting symptoms of damping-off at 25 ug/ml at 30 degC incubated for 72 hr measured after 3 days under greenhouse trials (reference value: 22.5%).
The test system of assay [8] is Fusarium verticillioides. Put plainly: Fungicidal activity against Fusarium verticilliodes isolate N04 in rice seeds harvested from bakane diseased plants assessed as number of seedlings abnormally elongated or exhibiting symptoms of damping-off at 12.5 ug/ml at 30 degC incubated for 72 hr measured after 3 days under greenhouse trials (reference value: 14.5%).
In assay [9] the test system is Fusarium verticillioides. Put plainly: Fungicidal activity against Fusarium verticilliodes isolate JS05 in rice seeds harvested from bakane diseased plants assessed as number of seedlings abnormally elongated or exhibiting symptoms of damping-off at 25 ug/ml at 30 degC incubated for 72 hr measured after 3 days under greenhouse trials (reference value: 36.4%).
For assay [10], the system named is Fusarium verticillioides. Put plainly: Fungicidal activity against Fusarium verticilliodes isolate JS06 in rice seeds harvested from bakane diseased plants assessed as number of seedlings abnormally elongated or exhibiting symptoms of damping-off at 8.33 ug/ml at 30 degC incubated for 72 hr measured after 3 days under greenhouse trials (reference value: 25.2%).

The test system of assay [11] is Fusarium verticillioides. Description: Fungicidal activity against Fusarium verticilliodes isolate YZ26 in rice seeds harvested from bakane diseased plants assessed as number of seedlings abnormally elongated or exhibiting symptoms of damping-off at 25 ug/ml at 30 degC incubated for 72 hr measured after 3 days under greenhouse trials (reference value: 49.3%).
Assay [12] deals with Fusarium verticillioides. Description: Fungicidal activity against Fusarium verticilliodes isolate YZ13 in rice seeds harvested from bakane diseased plants assessed as number of seedlings abnormally elongated or exhibiting symptoms of damping-off at 25 ug/ml at 30 degC incubated for 72 hr measured after 3 days under greenhouse trials (reference value: 26.8%).
Assay [13] relates to Fusarium verticillioides. Description: Fungicidal activity against Fusarium verticilliodes isolate JS02 in rice seeds harvested from bakane diseased plants assessed as number of seedlings abnormally elongated or exhibiting symptoms of damping-off at 12.5 ug/ml at 30 degC incubated for 72 hr measured after 3 days under greenhouse trials (reference value: 24.9%).
In assay [14] the test system is Fusarium verticillioides. Description: Fungicidal activity against Fusarium verticilliodes isolate YZ07 in rice seeds harvested from bakane diseased plants assessed as number of seedlings abnormally elongated or exhibiting symptoms of damping-off at 25 ug/ml at 30 degC incubated for 72 hr measured after 3 days under greenhouse trials (reference value: 43.2%).
The test system of assay [15] is Fusarium verticillioides. Put plainly: Fungicidal activity against Fusarium verticilliodes isolate YZ10 in rice seeds harvested from bakane diseased plants assessed as number of seedlings abnormally elongated or exhibiting symptoms of damping-off at 25 ug/ml at 30 degC incubated for 72 hr measured after 3 days under greenhouse trials (reference value: 49.2%).
Assay [16] relates to Fusarium verticillioides. Description: Fungicidal activity against Fusarium verticilliodes isolate N06 in rice seeds harvested from bakane diseased plants assessed as number of seedlings abnormally elongated or exhibiting symptoms of damping-off at 12.5 ug/ml at 30 degC incubated for 72 hr measured after 3 days under greenhouse trials (reference value: 9.6%).
In assay [17] the test system is Fusarium verticillioides. Description: Fungicidal activity against Fusarium verticilliodes isolate N05 in rice seeds harvested from bakane diseased plants assessed as number of seedlings abnormally elongated or exhibiting symptoms of damping-off at 12.5 ug/ml at 30 degC incubated for 72 hr measured after 3 days under greenhouse trials (reference value: 6.2%).
Assay [18] relates to Fusarium verticillioides. Put plainly: Fungicidal activity against Fusarium verticilliodes isolate YZ12 in rice seeds harvested from bakane diseased plants assessed as number of seedlings abnormally elongated or exhibiting symptoms of damping-off at 8.33 ug/ml at 30 degC incubated for 72 hr measured after 3 days under greenhouse trials (reference value: 45.8%).
For assay [19], the system named is Fusarium verticillioides. Description: Fungicidal activity against Fusarium verticilliodes isolate YZ10 in rice seeds harvested from bakane diseased plants assessed as number of seedlings abnormally elongated or exhibiting symptoms of damping-off at 12.5 ug/ml at 30 degC incubated for 72 hr measured after 3 days under greenhouse trials (reference value: 49.2%).

Assay [20] deals with Fusarium verticillioides. Description: Fungicidal activity against Fusarium verticilliodes isolate JS07 in rice seeds harvested from bakane diseased plants assessed as number of seedlings abnormally elongated or exhibiting symptoms of damping-off at 8.33 ug/ml at 30 degC incubated for 72 hr measured after 3 days under greenhouse trials (reference value: 33.8%).
For assay [21], the system named is Fusarium verticillioides. Description: Fungicidal activity against Fusarium verticilliodes isolate JS07 in rice seeds harvested from bakane diseased plants assessed as number of seedlings abnormally elongated or exhibiting symptoms of damping-off at 12.5 ug/ml at 30 degC incubated for 72 hr measured after 3 days under greenhouse trials (reference value: 33.8%).

The test system of assay [22] is Fusarium verticillioides. Description: Fungicidal activity against Fusarium verticilliodes isolate N01 in rice seeds harvested from bakane diseased plants assessed as number of seedlings abnormally elongated or exhibiting symptoms of damping-off at 8.33 ug/ml at 30 degC incubated for 72 hr measured after 3 days under greenhouse trials (reference value: 27.4%).
In assay [23] the test system is Fusarium verticillioides. Description: Fungicidal activity against Fusarium verticilliodes isolate YZ06 in rice seeds harvested from bakane diseased plants assessed as number of seedlings abnormally elongated or exhibiting symptoms of damping-off at 8.33 ug/ml at 30 degC incubated for 72 hr measured after 3 days under greenhouse trials (reference value: 45.3%).

On to `CCOC(=O)/C(C#N)=C(/N)c1ccccc1`, for which the Activity with Fusarium verticillioides [1] is reported as 0%; in the assay with Fusarium verticillioides [2] it was 1.6%; in the assay with Fusarium verticillioides [3], 0.8%; with Fusarium verticillioides [4] it was 0%; in the assay on Fusarium verticillioides [5], 0%; in the assay on Fusarium verticillioides [6], 0%. Moreover, the Activity in the assay with Fusarium verticillioides [7] is 0%; in the assay on Fusarium verticillioides [8], 0%; with Fusarium verticillioides [9], 0%; with Fusarium verticillioides [10], 0%; in the assay on Fusarium verticillioides [11], 0.2%; in the assay with Fusarium verticillioides [12], 0%. Moreover, the Activity was 0% in the assay with Fusarium verticillioides [13]; 0% with Fusarium verticillioides [14]; 0% in the assay on Fusarium verticillioides [15]; 0% in the assay on Fusarium verticillioides [16]; 0% with Fusarium verticillioides [17]; 1.4% in the assay with Fusarium verticillioides [18]. Besides, the Activity with Fusarium verticillioides [19], in the assay with Fusarium verticillioides [20], with Fusarium verticillioides [21], with Fusarium verticillioides [22] and with Fusarium verticillioides [23] was 0% each time.
